Measurements from US9920075B2, “Triazolopyridine and triazolopyrimidine inhibitors of myeloperoxidase” (BRISTOL-MYERS SQUIBB COMPANY, priority 2014, dated 2018).
Read-outs that look alike come from different tables or passages of the source.

How the values were obtained:
Format in all cases: biochemical
myeloperoxidase (MPO) [1] = target: T1, myeloperoxidase (MPO) (Homo sapiens, UniProt P05164); test: MPO peroxidation assay (Amplex Red assay); conditions: MPO peroxidation, 100 mM KPi pH 7.4, ten minute preincubation
T1 sequence (P05164 49-745): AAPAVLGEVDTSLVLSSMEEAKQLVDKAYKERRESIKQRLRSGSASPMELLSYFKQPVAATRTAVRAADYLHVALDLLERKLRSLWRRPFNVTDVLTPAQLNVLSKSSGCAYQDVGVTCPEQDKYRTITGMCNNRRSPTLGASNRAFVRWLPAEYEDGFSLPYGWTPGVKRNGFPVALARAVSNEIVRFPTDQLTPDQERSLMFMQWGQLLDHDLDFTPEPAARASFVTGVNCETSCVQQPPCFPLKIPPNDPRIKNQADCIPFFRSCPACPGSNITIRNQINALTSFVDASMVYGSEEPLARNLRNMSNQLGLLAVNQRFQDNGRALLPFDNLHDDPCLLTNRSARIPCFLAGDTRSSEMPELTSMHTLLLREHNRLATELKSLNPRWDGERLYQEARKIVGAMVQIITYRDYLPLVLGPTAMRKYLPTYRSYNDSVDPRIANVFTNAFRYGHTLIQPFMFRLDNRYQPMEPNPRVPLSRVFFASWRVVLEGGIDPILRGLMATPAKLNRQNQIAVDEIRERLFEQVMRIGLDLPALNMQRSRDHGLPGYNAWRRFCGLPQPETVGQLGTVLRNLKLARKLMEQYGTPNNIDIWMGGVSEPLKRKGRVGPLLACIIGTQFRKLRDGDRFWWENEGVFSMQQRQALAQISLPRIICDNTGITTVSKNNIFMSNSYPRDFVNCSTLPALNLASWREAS
How it was run: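 Peroxidase activity read as kinetic resorufin fluorescence after adding an Amplex Red mix (200 μM Amplex Red, 10 mM H2O2) to MPO preincubated 10 min at room temperature with inhibitor in 100 mM KPi pH 7.4. Linear-phase slopes (180–540 s) gave % inhibition, fitted with a Hill-slope model for IC50.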

myeloperoxidase (MPO) [2] = target: T1, myeloperoxidase (MPO); test: MPO chlorination assay (APF assay)
Experimental: [formula] where A=minimal Y value (activity level of inhibited sample), B=maximal Y value (activity level of uninhibited sample), C=Log IC50, D=Hill Slope, x=concentration of inhibitor. MPO Chlorination Assay (APF Assay)
MPO chlorination activity was measured in 100 mM KPi (pH 7.4) by utilizing the non-fluorescent reagent Aminophenyl fluorescein (APF, Invitrogen Cat. #A36003). APF is cleaved by (—OCl) to yield the fluorescent compound fluorescein. […] Enzyme, inhibitor, and chloride were preincubated for ten minutes at room temperature.
After the ten minute preincubation, 25 μL of an APF mixture containing […], 120 mM NaCl and 10 μM H2O2 was added to the plate using the internal dispensing system of a Hammatsu FDSS 6000. […] IC50 values for inhibitors were calculated by taking the slope of the linear portion of the kinetic measurement (20 seconds to ˜80-120 secs).
IC50 values were calculated by determining the slope of the linear portion of the kinetic trace (180-540 secs), and using that calculated slope to determine % inhibition occurring at each concentration of inhibitor using the following equation:
(§1) [formula] where A=minimal Y value (activity level of inhibited sample), B=maximal Y value (activity level of uninhibited sample), C=Log IC50, D=Hill Slope, x=concentration of inhibitor. EPX Bromination Assay

EPX = target: T2, EPX (Homo sapiens, UniProt P11678); test: EPX bromination assay
T2 construct: purchased Lee Biosolutions 342-60
T2 sequence (P11678 251-715 limits assumed): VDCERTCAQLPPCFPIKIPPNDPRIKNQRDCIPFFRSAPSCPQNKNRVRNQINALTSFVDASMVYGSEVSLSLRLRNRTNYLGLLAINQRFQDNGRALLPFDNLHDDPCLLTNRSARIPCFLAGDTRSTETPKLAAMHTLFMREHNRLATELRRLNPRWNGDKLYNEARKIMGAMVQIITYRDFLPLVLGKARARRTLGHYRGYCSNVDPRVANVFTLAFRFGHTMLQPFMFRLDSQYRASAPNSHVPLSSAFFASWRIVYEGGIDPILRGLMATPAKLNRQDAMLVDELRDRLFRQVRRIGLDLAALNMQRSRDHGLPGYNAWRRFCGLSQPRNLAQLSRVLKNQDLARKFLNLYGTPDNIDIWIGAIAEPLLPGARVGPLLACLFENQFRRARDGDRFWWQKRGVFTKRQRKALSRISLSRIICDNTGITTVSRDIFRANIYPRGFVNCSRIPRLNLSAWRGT
T2 sequence (P11678 140-250 limits assumed): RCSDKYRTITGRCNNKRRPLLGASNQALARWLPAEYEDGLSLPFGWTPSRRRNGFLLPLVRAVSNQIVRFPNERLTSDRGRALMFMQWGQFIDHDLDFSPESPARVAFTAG
Experimental: as §1
EPX bromination activity was measured in 100 mM KPi (pH 7.4) by monitoring the H2O2 catalyzed formation of 3-bromo tyrosine from tyrosine and potassium bromide. […] Enzyme and compound were preincubated for ten minutes at room temperature.
The reaction was allowed to proceed for 15 minutes, at which time it was quenched with 10 μL of 20% TCA. The final concentrations of all components were 0.3 μM EPX, 100 μM tyrosine, […], 5 μM H2O2, 0.1% DMSO, 2.0% TCA.
[formula] where A=minimal Y value (activity level of inhibited sample), B=maximal Y value (activity level of uninhibited sample), C=Log IC50, D=Hill Slope, x=concentration of inhibitor.
The column was maintained at 60° C. Samples were eluted using a gradient of 0%-100% B over 2.5 minutes, followed by equilibration with 100% A for 1 minute where A consisted of 0.1% TFA and B consisted of 90% MeOH/0.1% TFA at a flow rate of 0.6 mL/min.

[3] = read-out: Amplex Red Assay IC50 value
[4] = MPO chlorination, 100 mM KPi pH 7.4, ten minute preincubation, read-out: APF Assay IC50 value
[5] = EPX bromination, 100 mM KPi pH 7.4, ten minute preincubation, read-out: EPX IC50

Compound	IC50 (myeloperoxidase (MPO) [1]; [3]) [nM]	IC50 (myeloperoxidase (MPO) [2]; [4]) [nM]	IC50 (EPX; [5]) [nM]	IC50 (EPX) [nM]	IC50 (myeloperoxidase (MPO) [1]; Amplex Red Assay IC50 value) [nM]	IC50 (myeloperoxidase (MPO) [2]) [nM]
Nc1cc(OCc2nn(-c3ccccc3)nc2C(F)F)c2nn[nH]c2n1 [Example 55, 7-((5-(Difluoromethyl)-2-phenyl-2H-1,2,3-triazol-4-yl)methoxy)-3H-[1,2,3]triazolo[4,5-b]pyridin-5-amine]	–	–	–	10	10	80
Nc1cc(OCc2cc(-c3ccccc3)no2)c2nn[nH]c2n1 [Example 14, 7-((3-Phenylisoxazol-5-yl)methoxy)-3H-[1,2,3]triazolo[4,5-b]pyridin-5-amine]	–	–	–	–	120	120
Nc1cc(OCc2cncn2Cc2ccccc2)c2nn[nH]c2n1 [Example 28, 7-((1-Benzyl-1H-imidazol-5-yl)methoxy)-3H-[1,2,3]triazolo[4,5-b]pyridin-5-amine]	2400	1190	–	–	–	–
Nc1cc(OCC2COc3ccccc3C2)c2nn[nH]c2n1 (centres unmarked) [Example 34, 7-(Chroman-3-ylmethoxy)-3H-[1,2,3]triazolo[4,5-b]pyridin-5-amine]	1390	790	–	–	–	–
COc1cc(-c2nc(COc3cc(N)nc4[nH]nnc34)c(C)o2)ccc1Cl [Example 43, 7-((2-(4-Chloro-3-methoxyphenyl)-5-methyloxazol-4-yl)methoxy)-3H-[1,2,3]triazolo[4,5-b]pyridin-5-amine]	760	1520	–	–	–	–
CS(=O)(=O)N1CCCCC1COc1cc(N)nc2[nH]nnc12 (centres unmarked) [Example 86, 7-((1-(Methylsulfonyl)piperidin-2-yl)methoxy)-3H-[1,2,3]triazolo[4,5-b]pyridin-5-amine]	2030	1100	–	–	–	–

Continued by falling IC50 (myeloperoxidase (MPO) [1]; [3]), values first:

IC50 (myeloperoxidase (MPO) [1]; [3]) [nM]	IC50 (myeloperoxidase (MPO) [2]; [4]) [nM]	IC50 (EPX; [5]) [nM]	IC50 (EPX) [nM]	Compound	IC50 (myeloperoxidase (MPO) [1]; Amplex Red Assay IC50 value) [nM]	IC50 (myeloperoxidase (MPO) [2]) [nM]
90	910	–	–	Cc1nn(-c2ccc(N3CCNC(=O)C3)nc2)nc1COc1cc(N)nc2[nH]nnc12 [Example 61, 4-(5-(4-(((5-Amino-3H-[1,2,3]triazolo[4,5-b]pyridin-7-yl)oxy)methyl)-5-methyl-2H-1,2,3-triazol-2-yl)pyridin-2-yl)piperazin-2-one]	–	–
80	100	–	–	Nc1cc(OCc2nn(Cc3ccccc3)c3ccccc23)c2nn[nH]c2n1 [Example 53, 7-((1-Benzyl-1H-indazol-3-yl)methoxy)-3H-[1,2,3]triazolo[4,5-b]pyridin-5-amine]	–	–
80	320	–	–	CCc1nn(-c2ccccc2)nc1COc1cc(N)nc2[nH]nnc12 [Example 57, 7-((5-Ethyl-2-phenyl-2H-1,2,3-triazol-4-yl)methoxy)-3H-[1,2,3]triazolo [4,5-b]pyridin-5-amine]	–	–
30	100	–	–	COc1cccc(-n2nc(C)c(COc3cc(N)nc4[nH]nnc34)n2)c1 [Example 13, 7-((2-(3-Methoxyphenyl)-5-methyl-2H-1,2,3-triazol-4-yl)methoxy)-3H-[1,2,3]triazolo[4,5-b]pyridin-5-amine]	–	–
20	130	70	–	CCn1nc(COc2cc(N)nc3[nH]nnc23)cc1C(F)(F)F [Example 6, 7-((1-Ethyl-5-(trifluoromethyl)-1H-pyrazol-3-yl)methoxy)-3H-[1,2,3]triazolo[4,5-b]pyridin-5-amine]	–	–
20	170	40	–	COc1ccc(-n2nc(C)c(COc3cc(N)nc4[nH]nnc34)n2)cc1 [Example 11, 7-((2-(4-Methoxyphenyl)-5-methyl-2H-1,2,3-triazol-4-yl)methoxy)-3H-[1,2,3]triazolo[4,5-b]pyridin-5-amine]	–	–
20	60	40	–	Cn1ncc2c(COc3cc(N)nc4[nH]nnc34)cccc21 [Example 15, 7-((1-Methyl-1H-indazol-4-yl)methoxy)-3H-[1,2,3]triazolo[4,5-b]pyridin-5-amine]	–	–
20	80	–	–	Cc1nn(-c2cccc(F)c2)nc1COc1cc(N)nc2[nH]nnc12 [Example 12, 7-((2-(3-Fluorophenyl)-5-methyl-2H-1,2,3-triazol-4-yl)methoxy)-3H-[1,2,3]triazolo[4,5-b]pyridin-5-amine]	–	–
